Experimental data published in PubChem BioAssay (NCI).
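Five compound concentrations were applied to cells in 96-well plates for 48 hours; endpoints were derived by simple linear interpolation of the resulting dose-response curve. TGI: total growth inhibition.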

Experiments:
Experiment in all cases: NCI-60 cell line screen, 48 h
[1] = tested on: SNB-78 CNS
[2] = tested on: M19-MEL melanoma
[3] = tested on: LXFL 529 NSCLC
[4] = tested on: RXF-631 renal
[5] = tested on: HOP-18 NSCLC
[6] = tested on: XF 498 CNS
[7] = tested on: DLD-1 colon

Measured: TGI

N#Cc1ccccc1NC(=O)C(=O)C(C(=O)c1ccncc1)C1OC(=O)c2ccccc21 (centres undefined)
> 100 µM: [1] | [2] | [3] | [4] | [5] | [6] | [7]

COc1ccc(-c2cc(=O)c3cc(Cl)ccc3[nH]2)cc1
> 100 µM: [1] | [2] | [3] | [4] | [5] | [6] | [7]
